We go through 14 compounds from patent publication US20180237713A1, “Ionic Liquid, Lubricant, and Magnetic Recording Medium” (priority 2015, published 2018).

The nature of series [1]: Thermal stability measurement (TG/DTA weight reduction temperature). Conditions: for Weight reduction temperature 5% / Weight reduction temperature 10% / Weight reduction temperature 20%: TG/DTA, air 200 mL/min, 10° C./min, 30° C. to 600° C.
The nature of series [2]: Solubility test of ionic liquid in fluorine-based solvent VERTREL XF. The conditions noted are these: for Dissolved or not in fluorine-based solvent: VERTREL XF; for Solubility to fluorine-based solvent: VERTREL XF [CF3(CHF)2CF2CF3], 25° C., ultrasonic 5 minutes, left 1 day, visual.
Protocol: A solubility test was performed on the ionic liquid synthesized each of Examples and each of Comparative Examples using VERTREL XF [CF3(CHF)2CF2CF3] available from Du Pont-Mitsui Fluorochemicals Company, Ltd. as a fluorine-based solvent.
The ionic liquid was added to the predetermined mass of VERTREL XF.
Specifically, 0.5 parts by mass or 0.1 parts by mass of each ionic liquid was added to 100 parts by mass of VERTREL XF (25° C.).
Note that, a case where the mixture was visually observed to be transparent, the ionic liquid was judged as being dissolved. A case where the mixture was not transparent or insoluble matter was observed, the ionic liquid was judged as not being dissolved (insoluble).
The ionic liquid was dissolved when 0.5 parts by mass of the ionic liquid was added.
The ionic liquid was not dissolved when 0.5 parts by mass of the ionic liquid was added, but the ionic liquid was dissolved when 0.1 parts by mass of the ionic liquid was added.
The ionic liquid was not dissolved both when 0.5 parts by mass of the ionic liquid was added and when 0.1 parts by mass of the ionic liquid was added.
The conditions of series [3]: in acetonitrile; cited from earlier work.

Bounds are passed on as bounds.

Consider `CCCCCCCCCCCCCCCCCCN1CCCN2CCCN=C12.O=S1(=O)NS(=O)(=O)C(F)(F)C(F)(F)C1(F)F` [Comp. Ex. 4A, hexafluorocyclopropane-1,3-bis(sulfonyl)imide-7-octadecyl-1,5,7-triazabicyclo[4.4.0]-5-decenium, reference compound], for which, in series [1], the “Weight reduction temperature 5%” value amounted to 288.4 °C, the “Weight reduction temperature 10%” value came out at 376.2 °C and the “Weight reduction temperature 20%” value stood at 412.1 °C. Further, in series [2], the “Dissolved or not in fluorine-based solvent” value (“Dissolved or not” for short) is recorded as “not dissolved” and the “Solubility to fluorine-based solvent” value was “less than 0.1% by mass”.

In the case of `CCCCCCCCCCCCCCCCCCN1CCCC1.O=S1(=O)NS(=O)(=O)C(F)(F)C(F)(F)C1(F)F` [Comp. Ex. 6A, hexafluorocyclopropane-1,3-bis(sulfonyl)imide-N-octadecylpyrrolidinium, reference compound], in series [1], the “Weight reduction temperature 5%” value worked out at 336.4 °C, the “Weight reduction temperature 10%” value is 358.4 °C and the “Weight reduction temperature 20%” value is 379.4 °C. Also, the “Solubility to fluorine-based solvent” value in series [2] is on record as “less than 0.1% by mass”.

On to `CCCCCCCCCCCCCCCCCC[n+]1ccn(CCCC)c1.O=S(=O)([N-]S(=O)(=O)C(F)(F)C(F)(F)C(F)(F)C(F)(F)F)C(F)(F)C(F)(F)C(F)(F)C(F)(F)F` [Comp. Ex. 8A, bis(nonafluorobutanesulfonyl)imide-1-butyl-3-n-octadecylimidazolium, reference compound], for which, in series [1], the “Weight reduction temperature 5%” value is 347.2 °C, the “Weight reduction temperature 10%” value came to 367.0 °C and the “Weight reduction temperature 20%” value was 387.8 °C. In series [2], the “Solubility to fluorine-based solvent” value is on record as “less than 0.1% by mass”.

Take `CCCCCCCCCCCCCCCCCCn1cc[n+](CCCCCCCCC[n+]2ccn(CCCCCCCCCCCCCCCCCC)c2)c1.O=S(=O)([N-]S(=O)(=O)C(F)(F)C(F)(F)C(F)(F)C(F)(F)F)C(F)(F)C(F)(F)C(F)(F)C(F)(F)F.O=S(=O)([N-]S(=O)(=O)C(F)(F)C(F)(F)C(F)(F)C(F)(F)F)C(F)(F)C(F)(F)C(F)(F)C(F)(F)F` [Comp. Ex. 10A, 1,9-bis[bis(nonafluorobutanesulfonyl)imide-1-octadecylimidazolium]nonane, reference compound]: in series [1], the “Weight reduction temperature 5%” value was determined as 355.1 °C, the “Weight reduction temperature 10%” value came out at 381.0 °C and the “Weight reduction temperature 20%” value was determined as 400.9 °C. Besides, in series [2], the “Solubility to fluorine-based solvent” value is on record as “less than 0.1% by mass”.

As to `CCCCCCCCCCCCCCCCCC[N+]1=C2CCCCCN2CCC1.O=S(=O)([N-]S(=O)(=O)C(F)(F)C(F)(F)C(F)(F)C(F)(F)F)C(F)(F)C(F)(F)C(F)(F)C(F)(F)F` [Ex. 2A, bis(nonafluorobutanesulfonyl)imide-8-octadecyl-1,8-diazabicyclo[5.4.0]-7-undecenium], in series [1], the “Weight reduction temperature 5%” value is 341.1 °C, the “Weight reduction temperature 10%” value was 372.9 °C and the “Weight reduction temperature 20%” value is 396.3 °C. For the same compound, the “Thermal stability improved compared with perfluoropolyether Z-DOL or Z-TETRAOL by” value in series [1] (difference to Z-DOL or Z-TETRAOL) was at least 100 °C. In addition, the “Solubility to fluorine-based solvent” value in series [2] is listed as 0.5% by mass or greater. Also, in series [2] (listed as Example 2A), the “Solubility to fluorine-based solvent” value is listed as at least 0.5 % by mass.

With `CCCCCCCCCCCCCCCCCC[N+]1(CCCC)CCCC1.O=S(=O)([N-]S(=O)(=O)C(F)(F)C(F)(F)C(F)(F)C(F)(F)F)C(F)(F)C(F)(F)C(F)(F)C(F)(F)F` [Ex. 4A, bis(nonafluorobutanesulfonyl)imide-N-butyl-N-octadecylpyrrolidinium], in series [1], the “Weight reduction temperature 5%” value turned out to be 331.4 °C, the “Weight reduction temperature 10%” value amounted to 360.2 °C and the “Weight reduction temperature 20%” value worked out at 382.5 °C. In series [2], the “Dissolved or not” value is “could be dissolved” and the “Solubility to fluorine-based solvent” value is 0.5% by mass or greater. Further, the “Solubility to fluorine-based solvent” value in series [2] (listed as Example 4A) is on record as at least 0.5 % by mass.

Regarding `CCCCCCCCCCCCCCCCCCN1CCCC1.O=S(=O)(NS(=O)(=O)C(F)(F)C(F)(F)C(F)(F)C(F)(F)F)C(F)(F)C(F)(F)C(F)(F)C(F)(F)F` [Ex. 5A, bis(nonafluorobutanesulfonyl)imide-N-octadecylpyrrolidinium], in series [1], the “Weight reduction temperature 5%” value is 312.6 °C, the “Weight reduction temperature 10%” value is 334.4 °C and the “Weight reduction temperature 20%” value is 355.5 °C. For the same compound, in series [2], the “Dissolved or not” value is on record as “could be dissolved” and the “Solubility to fluorine-based solvent” value is recorded as 0.5% by mass or greater. The “Solubility to fluorine-based solvent” value in series [2] (listed as Example 5A) is at least 0.5 % by mass.

As to `C[n+]1ccn(CCC(F)(F)C(F)(F)C(F)(F)C(F)(F)C(F)(F)C(F)(F)C(F)(F)C(F)(F)F)c1.O=S(=O)([N-]S(=O)(=O)C(F)(F)C(F)(F)C(F)(F)C(F)(F)F)C(F)(F)C(F)(F)C(F)(F)C(F)(F)F` [Ex. 9A, bis(nonafluorobutanesulfonyl)imide-1-1′H,1′H,2′H,2′H-heptadecafluorodecyl-3-methylimidazolium], in series [1], the “Weight reduction temperature 5%” value stood at 350.3 °C, the “Weight reduction temperature 10%” value stood at 365.5 °C and the “Weight reduction temperature 20%” value amounted to 381.3 °C. The “Solubility to fluorine-based solvent” value in series [2] is listed as 0.5% by mass or greater. For the same compound, in series [2] (listed as Example 9A), the “Solubility to fluorine-based solvent” value is on record as at least 0.5 % by mass.

`O=S(=O)(NS(=O)(=O)C(F)(F)C(F)(F)C(F)(F)C(F)(F)F)C(F)(F)C(F)(F)C(F)(F)C(F)(F)F` [bis(nonafluorobutanesulfonyl)imide]: the “pKa of acid that is a source of the conjugate base” value (“pKa” for short) in series [3] is on record as 0.0.

For `O=S(=O)(O)C(F)(F)C(F)(F)C(F)(F)C(F)(F)C(F)(F)C(F)(F)C(F)(F)C(F)(F)F` [heptadecafluorooctane sulfonic acid], in series [3], the “pKa” value was 0.7.

Consider `O=S1(=O)NS(=O)(=O)C(F)(F)C(F)(F)C1(F)F` [hexafluorocyclopropane-1,3-bis(sulfonyl)imide], for which the “pKa” value in series [3] was −0.8.

`F[B-](F)(F)F.[H+]` [tetrafluoroboric acid]: the “pKa” value in series [3] is recorded as 1.8.

Take `O=S(=O)(C(S(=O)(=O)C(F)(F)F)S(=O)(=O)C(F)(F)F)C(F)(F)F` [tris(trifluoromethanesulfonyl)methide]: in series [3], the “pKa” value is on record as −3.7.

Take “bis(nonafluorobutanesulfonyl)imide-6-octadecyl-1,8-diazabicyclo[5.4.0]-7-undecene [Ex. 1A]”: in series [1], the “Weight reduction temperature 5%” value is 352.9 °C, the “Weight reduction temperature 10%” value was found to be 378.2 °C and the “Weight reduction temperature 20%” value came out at 396.7 °C. The “Solubility to fluorine-based solvent” value in series [2] is given as 0.5% by mass or greater. For the same compound, the “Solubility to fluorine-based solvent” value in series [2] (listed as Example 1A) is at least 0.5 % by mass.
